Legend:
[1] = Solubility of olaparib in glycerolipids with and without digestion enhancers; assay type: physicochemical; settings: 55 mg in 1 g of only MAISINE CC, only GELUCIRE 43/01, or their admixture, 130° C., stirred at least 60 minutes
[2] = Miscibility / self-emulsification test modelling ICH dissolution testing; assay type: physicochemical; settings: 1 g of 100% or 75% preparation in 1 L PBS with […] curcumin, 37° C., stirring 300 rpm 10 min, then 10 min without stirring
Description: To assess whether oleic acid could self-emulsify at the concentrations used in the disclosed pharmaceutical compositions, experiments was performed that were designed to model dissolution testing according to International Council for Harmonisation (ICH) guidelines. […] Miscibility experiments were performed using two concentrations of oleic acid nominally above the CMC concentration for this fatty acid. In one series of experiments, 1 g of 100% oleic acid was added to the dissolution media. The control compound was 1 g of 100% MAISINE™ CC. In a second series of experiments 1 g of 75% oleic acid (diluted with 250 mg of MAISINE™ CC) was added to the dissolution media. The control compound was 1 g of 75% MAISINE™ CC. The miscibility of oleic acid and MAISINE™ CC was assessed by observing the dissolution media for 10 minutes with constant stirring and then 10 minutes without stirring. Photographs were taken at time 0, 1, 2, 3, 4, 5 and 10 minutes during the stirring phase and 2, 4 and 10 minutes after stirring ceased.

solubility of olaparib in glycerolipids without digestion enhancers [1] | miscibility in dissolution media [2] | SMILES
remained insoluble |  | O=C(c1cc(Cc2n[nH]c(=O)c3ccccc23)ccc1F)N1CCN(C(=O)C2CC2)CC1 [olaparib]
 | not miscible | CCCCCCCC/C=C\CCCCCCCC(=O)O [oleic acid]
